This is an account of results in paper PMC6432629 (The Prostate, 2016).

The term IC50 denotes the midpoint of a concentration-inhibition curve.

Numbered stars: 1 amine (or outer) side, 2 acyl side, 3 side chain; on linkers, the order of the positions; unused ones are H or OH. Square brackets hold non-standard residues; d marks the D form. Peptide text beside a SMILES is read from it. * marks the point of attachment. Emetine(N2') = CC[C@H]1CN2CCc3cc(OC)c(OC)cc3[C@@H]2C[C@@H]1C[C@@H]1c2cc(OC)c(OC)cc2CCN1*; PABC = O=C(OCc1ccc(N[*:1])cc1)[*:2]

Data set [1] concerns FAP/DPPIV activity in 10% FBS. Briefly: Inhibition of hydrolysis of 10 to emetine in 10% FBS by FAP inhibitor. Type of data set: biochemical, bovine. Conditions: Ac-Gly-boroPro 200 μM added to 10% FBS containing media.
The test system of the next data set is LNCaP. In words: MTT cell proliferation. Conditions: for cytotoxicity to LNCaP (in words): media with 10% FBS, exposure time not given.
The test system of a further data set is PC3. In words: MTT cell proliferation. Conditions: for cytotoxicity to PC3 (in words): media with 10% FBS, exposure time not given; for IC50 fold higher than that of emetine, PC3: in FAP-containing FBS.
Data set [2] concerns the target T1, FAP (Homo sapiens, UniProt Q12884).
T1 sequence (Q12884 27-760 limits assumed): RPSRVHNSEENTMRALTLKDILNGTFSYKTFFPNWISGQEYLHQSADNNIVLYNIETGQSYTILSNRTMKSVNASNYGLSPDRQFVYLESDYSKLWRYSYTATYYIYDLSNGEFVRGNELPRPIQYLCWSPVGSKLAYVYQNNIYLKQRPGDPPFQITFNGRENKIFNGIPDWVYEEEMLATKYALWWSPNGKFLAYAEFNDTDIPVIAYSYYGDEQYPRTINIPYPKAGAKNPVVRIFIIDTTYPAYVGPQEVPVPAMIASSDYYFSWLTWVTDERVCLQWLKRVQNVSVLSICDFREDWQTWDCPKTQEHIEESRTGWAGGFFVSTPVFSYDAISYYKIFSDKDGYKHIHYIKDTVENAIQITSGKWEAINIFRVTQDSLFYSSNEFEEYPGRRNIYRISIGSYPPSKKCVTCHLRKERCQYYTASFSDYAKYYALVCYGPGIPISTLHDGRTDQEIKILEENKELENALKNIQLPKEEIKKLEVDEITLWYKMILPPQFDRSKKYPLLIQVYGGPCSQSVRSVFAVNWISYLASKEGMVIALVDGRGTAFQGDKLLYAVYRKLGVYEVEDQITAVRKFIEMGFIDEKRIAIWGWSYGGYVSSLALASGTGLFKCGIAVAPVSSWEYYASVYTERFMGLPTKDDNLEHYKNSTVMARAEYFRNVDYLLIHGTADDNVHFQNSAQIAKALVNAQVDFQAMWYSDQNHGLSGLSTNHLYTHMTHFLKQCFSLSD
Briefly: FAP-mediated hydrolysis of prodrugs ex vivo. Type of data set: in vitro ADME. Conditions: 37°C; for release of emetine on incubation with FAP (in words): FAP in FAP buffer / FAP containing media, 24 hr, LC-MS.

For data set [3], the target named is DPPIV (human recombinant CD26) (Homo sapiens, UniProt P27487). In words: DPPIV-mediated hydrolysis of prodrugs ex vivo. Type of data set: in vitro ADME. The conditions noted are these: very high concentration, incubation up to 48 hr at 37°C, LC-MS.
Chain of DPPIV (human recombinant CD26) (P27487 whole entry): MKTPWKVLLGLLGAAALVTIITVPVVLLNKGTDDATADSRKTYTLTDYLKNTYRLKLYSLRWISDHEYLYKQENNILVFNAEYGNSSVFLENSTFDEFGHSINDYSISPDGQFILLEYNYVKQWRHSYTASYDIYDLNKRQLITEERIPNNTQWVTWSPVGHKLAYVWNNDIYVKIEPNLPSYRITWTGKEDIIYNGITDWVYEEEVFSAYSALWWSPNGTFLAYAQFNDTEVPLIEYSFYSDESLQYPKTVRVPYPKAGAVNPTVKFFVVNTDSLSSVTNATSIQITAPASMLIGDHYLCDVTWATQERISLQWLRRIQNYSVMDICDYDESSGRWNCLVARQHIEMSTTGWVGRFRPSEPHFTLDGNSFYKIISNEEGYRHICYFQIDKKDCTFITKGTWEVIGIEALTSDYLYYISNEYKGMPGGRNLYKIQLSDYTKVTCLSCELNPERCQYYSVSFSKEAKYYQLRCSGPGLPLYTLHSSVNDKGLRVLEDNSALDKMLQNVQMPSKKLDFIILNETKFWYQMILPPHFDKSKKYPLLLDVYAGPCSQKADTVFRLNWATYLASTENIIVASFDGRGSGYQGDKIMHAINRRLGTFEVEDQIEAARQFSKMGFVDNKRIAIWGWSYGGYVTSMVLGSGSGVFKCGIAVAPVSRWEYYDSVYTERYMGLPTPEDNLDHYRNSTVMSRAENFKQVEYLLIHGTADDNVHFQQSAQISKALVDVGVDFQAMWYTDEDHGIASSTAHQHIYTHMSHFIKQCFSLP
The subject of a further data set is MCF-7. In words: MTT cell proliferation.
Data set [4] in a line: Hydrolysis of prodrugs in media with 10% FBS. Format: in vitro ADME, bovine.
Data set [5] concerns FAP. Briefly: FAP buffer. The conditions noted are these: 37°C, up to 24 hr.
The subject of another data set is FAP and DPPIV. In words: mixture of purified FAP and DPPIV. The conditions noted are these: 37°C, up to 24 hr.
For a further data set, the system named is DPPIV. Briefly: FAP buffer. Conditions: Human, 37°C, up to 48 hr.

For `CC(=O)NCC(=O)N1CCC[C@@H]1B(O)O` [AcGBP, Ac-Gly-boroPro], in [1] (2 hr), the “inhibition of release of emetine from 10 in 10% FBS, 2 hr” value is recorded as “completely inhibited”. For the same compound, the “decrease of release of emetine from 10 in 10% FBS, 24 hr” value in [1] (24 hr) is “approximately 45%”.

Consider `CC[C@H]1CN2CCc3cc(OC)c(OC)cc3[C@@H]2C[C@@H]1C[C@@H]1c2cc(OC)c(OC)cc2CCN1C(=O)[C@@H]1CCCN1C(=O)CNC(=O)[C@H](C)NC(=O)[C@@H]1CCCN1C(=O)CNC(=O)[C@H](CO)NC(=O)[C@H](C)NC(C)=O` [Compound 1] (Ac-ASGPAGP-{Emetine(N2')}), for which the “cytotoxicity to LNCaP (in words)” value in the data set on LNCaP was “not cytotoxic”. Besides, the “cytotoxicity to PC3 (in words)” value in the data set with PC3 is “not cytotoxic”. For the same compound, in the data set with FAP [2], the “release of emetine on incubation with FAP (in words)” value (from here on “release of emetine on incubation”) is “did not release detectable amounts of emetine”.

With `CC[C@H]1CN2CCc3cc(OC)c(OC)cc3[C@@H]2C[C@@H]1C[C@@H]1c2cc(OC)c(OC)cc2CCN1C(=O)OCc1ccc(NC(=O)[C@@H]2CCCN2C(=O)CNC(=O)[C@H](C)NC(=O)[C@@H]2CCCN2C(=O)CNC(=O)[C@H](CO)NC(=O)[C@H](C)NC(C)=O)cc1` [Compound 2] (Ac-ASGPAGP[PABC]-{Emetine(N2')}), the “cytotoxicity to LNCaP (in words)” value in the data set on LNCaP is listed as “not cytotoxic”. Besides, the “cytotoxicity to PC3 (in words)” value in the data set with PC3 is on record as “not cytotoxic”. The “release of emetine on incubation” value with FAP [2] is given as “not cleaved by FAP containing media to release emetine”.

`CC[C@H]1CN2CCc3cc(OC)c(OC)cc3[C@@H]2C[C@@H]1C[C@@H]1c2cc(OC)c(OC)cc2CCN1C(=O)[C@H](C)NC(=O)[C@@H]1CCCN1C(=O)CNC(=O)[C@H](C)NC(=O)[C@@H]1CCCN1C(=O)CNC(=O)[C@H](CO)NC(=O)[C@H](C)NC(C)=O` [Compound 3] (Ac-ASGPAGPA-{Emetine(N2')}): in the data set with PC3, the “IC50 fold higher than that of emetine, PC3” value is listed as “more than 150 fold”. In the data set with FAP [2] (24 hr incubation with FAP), the “% cleavage to Ala-Gly-Pro-Ala-Emetine” value is recorded as 100%. In the data set with FAP [2], the “release of emetine on incubation” value was “no further conversion to free emetine”.

`CC[C@H]1CN2CCc3cc(OC)c(OC)cc3[C@@H]2C[C@@H]1C[C@@H]1c2cc(OC)c(OC)cc2CCN1C(=O)OCc1ccc(NC(=O)[C@H](C)NC(=O)[C@@H]2CCCN2C(=O)CNC(=O)[C@H](C)NC(=O)[C@@H]2CCCN2C(=O)CNC(=O)[C@H](CO)NC(=O)[C@H](C)NC(C)=O)cc1` [Compound 4] (Ac-ASGPAGPA[PABC]-{Emetine(N2')}): the “IC50 fold higher than that of emetine, PC3” value in the data set with PC3 was “more than 150 fold”. Also, in the data set with FAP [2] (24 hr incubation with FAP), the “% Ala-Gly-Pro-Ala-PABC-Emetine (minor cleavage product)” value amounted to 15% and the “% Ala-PABC-Emetine (major cleavage product)” value is listed as 85%. Besides, the “release of emetine on incubation” value in the data set with FAP [2] is given as “no further conversion to free emetine”.

On to `CC[C@H]1CN2CCc3cc(OC)c(OC)cc3[C@@H]2C[C@@H]1C[C@@H]1c2cc(OC)c(OC)cc2CCN1C(=O)[C@@H]1CCCN1C(=O)[C@H](C)N` [Compound 9], for which the “cytotoxicity to LNCaP (in words)” value in the data set with LNCaP was “inactive compared to emetine”. The IC50 was 9520 nM with LNCaP (read-out: IC50 (nM) LNCaP, Table II, 3-day exposure, media containing 10% FBS, MTT); above 10000 nM in the data set with MCF-7 (read-out: IC50 (nM) MCF-7, Table II, 3-day exposure, media containing 10% FBS, MTT); above 10000 nM in the data set on PC3 (read-out: IC50 (nM) PC3, Table II, 3-day exposure, media containing 10% FBS, MTT). Moreover, in data set [3], the “conversion to emetine by purified DPPIV (in words)” value was “not converted to emetine”. Moreover, the “cytotoxicity to MCF-7 (in words)” value in the data set on MCF-7 (media with 10% FBS, exposure time not given) is “inactive compared to emetine”. Besides, the “cytotoxicity to PC3 (in words)” value with PC3 is “inactive compared to emetine”. Further, in [4] (RPMI media with 10% FBS, 500 μM compound, 1% DMSO, 37°C, 24 hr, HPLC and MS), the “% emetine released, 10% FBS” value came to 0%. Moreover, the “conversion to emetine in 10% FBS (in words)” value in [4] (very high concentration, incubation up to 48 hr at 37°C, LC-MS) is “not converted to emetine”.

As for “Ac-Ala-Ser-Gly-Pro-Ala-Gly-Pro-Ala-Pro-PABC-Emetine”, the fragment found result is given as “emetine” in the data set with FAP [5]; “emetine, 2 hr” with FAP and DPPIV.

Take Ala-Pro-PABC-Emetine: the fragment found result in the data set with DPPIV was “emetine, 2 hr”; in the data set on FAP [5] it was “emetine”.
